Laboratory results: PubChem BioAssay (NCI)
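Values below derive from 48-hour exposures of cells grown in 96-well plates, with endpoints linearly interpolated between the two concentrations bracketing the appropriate inhibition level. At the GI50, growth is halved. TGI is the concentration that stops growth completely.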

Tests used:
Assay in all cases: inhibition of tumour cell growth, NCI panel, 48 h
[1] = tested on: TK-10 renal
[2] = tested on: SK-OV-3 ovarian
[3] = tested on: SW-620 colon
[4] = tested on: RPMI-8226 leukemia
[5] = tested on: HCT-116 colon
[6] = tested on: UO-31 renal
[7] = tested on: SK-MEL-5 melanoma
[8] = tested on: NCI/ADR-RES ovarian
[9] = tested on: SNB-19 CNS
[10] = tested on: OVCAR-5 ovarian

SMILES | GI50 [1] [µM] | TGI [1] [µM] | GI50 [2] [µM] | TGI [2] [µM] | GI50 [3] [µM] | TGI [3] [µM] | GI50 [4] [µM] | TGI [4] [µM] | GI50 [5] [µM] | TGI [5] [µM] | GI50 [6] [µM] | TGI [6] [µM] | GI50 [7] [µM] | TGI [7] [µM] | GI50 [8] [µM] | TGI [8] [µM] | GI50 [9] [µM] | TGI [9] [µM] | GI50 [10] [µM] | TGI [10] [µM]
C#Cc1cccc(Nc2ncnc3cc(OC)c(OCCCCCCC(=O)NO)cc23)c1 | 0.185 | 2.36 | 0.208 | 1.03 | 0.058 | 0.319 | 0.302 | 1.78 | 0.0791 | 3.33 | 0.141 | 2.69 | 0.177 | 0.496 | 0.917 | 6.91 | 0.115 | 3.65 | 0.121 | 3
C/C1=C\CC[C@@]2(C)O[C@@H]2[C@H]2OC(=O)[C@@H](CN(C)C)[C@@H]2CC1 | 3.09 | 7.7 | 27.6 | 54 | 3.76 | > 100 | 2.39 | 23.1 | 4.97 | 20.4 | 2.31 | 5.95 | 8.14 | 29.7 | 14.7 | 59.9 | 27.9 | 63 | 18.6 | 37.1
COC(=O)/C=C/c1cc(O)c2oc(-c3ccc(O)c(O)c3)c(C(=O)OC)c2c1 | 3.89 | 16.9 | 1.13 | 15.6 | 0.124 | 14 | 0.316 | 1.75 | 0.329 | 9.14 | 1.11 | 10.6 | 0.221 | 1.61 | 0.134 | 6.63 | 0.356 | 14.2 | 3.56 | 16.5
COc1cc(Nc2cn[nH]c2-c2ccc(Cl)cc2)cc(OC)c1OC | 9.13 | 62.9 | 4.92 | 36.6 | 3.87 | 23.7 | 2.48 | 12.3 | 3.73 | 13.7 | 4.09 | 28.8 | 3.58 | 14.6 | 4.42 | > 36.8 | 6.96 | > 69.3 | 15.9 | > 77.1
C/C(=C\CCc1ccoc1)CC/C=C(\C)CCCC1=CC(=O)OC1 | 16.9 | 63.9 | 12.6 | 50.4 | 12.1 | > 100 | 2.85 | 16.7 | 4.02 | 18.8 | 4.35 | 48.7 | 2.55 | 6.66 | 5.42 | 31 | 17.7 | > 100 | 12.5 | 68.9
CC(SC(C)C(=O)N/N=C/c1cccc(Cl)c1)C(=O)N/N=C\c1cccc(Cl)c1 (stereo not given) | 4.66 | 18.1 | 13 | 31.2 | 2.6 | 6.65 | 17.9 | > 100 | 2.65 | 7.94 | 14.8 | 94.4 | 16.3 | 31.4 | 71.7 | > 100 | 21.7 | > 100 | 17.4 | 44.2
NC(=NCCCOc1ccc(Cl)cc1)Nc1ccc(C(F)(F)F)cc1 | 1.73 | 3.66 | 4.68 | 18.1 | 1.99 | 5.99 | 1.75 | 4.32 | 1.32 | 2.74 | 1.85 | 7.37 | 1.61 | 2.97 | 2.35 | 7.27 | 2.79 | 19.5 | 2.67 | 13.7
CC(C)c1ccc(Nc2ccc3c(OCCCN4CCN(C)CC4)cccc3n2)cc1 | 16.5 | 30.7 | 15.7 | 31.2 | 8.9 | 22.9 | 3.39 | 14.3 | 5.9 | 20.6 | 12.9 | 27.8 | 15.3 | 30.2 | 15.9 | 32.9 | 12.5 | 30 | 15.6 | 31.2
COc1ncnc(C2CC2)c1-c1ncc2cnn(Cc3ccc(-c4nc(C(F)(F)F)cn4C(C)C)cc3)c2n1 | 29 | > 100 | 36.8 | > 100 | 28 | > 100 | 10.9 | 42.2 | 22.2 | > 100 | 3.25 | 36.7 | 12.6 | 25.2 | 15.6 | 82.6 | 22 | 69.5 | 26.2 | > 100
Clc1ccc2c(NCCCNc3nccc(Nc4ccc(Br)cc4)n3)ccnc2c1 | 1.83 | 3.26 | 1.55 | 2.91 | 1.58 | 3.3 | 1.97 | 4.45 | 1.36 | 3.08 | 1.52 | 3.01 | 1.48 | 2.84 | 1.79 | 3.42 | 1.75 | 3.32 | 1.63 | 3.18
